Data taken from US11395857B2, “Radiolabeled melanocortin 1 receptor-specific alpha-melanocyte-stimulating hormone analogues for imaging or therapy” (PROVINCIAL HEALTH SERVICES AUTHORITY, priority 2018, dated 2022).

Experiments:
in vivo = details: male, NRG (NOD.Cg-Rag1tm1Mom Il2rgtm1Wjl/SzJ), mouse, total radioactivity
Method: (§1) The SK-MEL-1 human melanoma cell line (HTB-67) was obtained commercially from ATCC. SK-MEL-1 cells were cultured in Eagle's Minimum Essential Medium (StemCell Technologies) under the same conditions as described in Example 1. Immunodeficient NOD.Cg-Rag1tm1Mom I12rgtm1Wjl/SzJ (NRG) male mice were obtained from an in-house breeding colony at the BC Cancer Research Centre. For tumor implantation, male NRG mice were anesthetized by inhalation with 2% isoflurane, and 5 million SK-MEL-1 cells were inoculated subcutaneously on the right dorsal flank. Mice were used for imaging or biodistribution studies when the tumors reached 6-8 mm in diameter in 16-20 days.
(§2) Biodistribution studies were performed as described in Example 3.

[1] = Biodistribution of 177Lu-labeled αMSH analogues in mice bearing SK-MEL-1 human melanoma; details: male, mouse, total radioactivity
Method: as §1, §2

SK-MEL-1 human melanoma [2] = assay: as above; details: compared to the other two analogues
Method: as §1, §2

SK-MEL-1 human melanoma [3] = assay: Radioligand therapy of SK-MEL-1 human melanoma-bearing mice; assay type: in vivo, NRG mice; details: radiotherapy group, 26.7±3.6 MBq/mouse
Method: For radioligand therapy, SK-MEL-1 human melanoma-bearing mice were injected with saline (control group, n=5), non-radioactive lutetium coupled CCZ01158 (cold std, n=4), and [^177Lu]Lu-CCZ01158 (26.7±3.6 MBq/mouse, n=4). Tumour size and body weight were measured every 2-4 days from the date of injection. Endpoint was defined as >15% weight loss, ulceration of tumours, or tumour volume >1000 mm^3 (Volume=width×width×length/2, measured with calliper). […] This confirms the effectiveness of the ^177Lu radiotherapy with CCZ01158 as the melanoma targeting molecule. […] All mice were euthanized when the tumours reached over 1000 mm^3, except for one mouse due to weight loss in the saline group, and one mouse due to tumour ulceration in the cold std group.

[4] = NRG (NOD.Cg-Rag1tm1Mom I12rgtm1Wjl/SzJ), fat, iv
[5] = NRG (NOD.Cg-Rag1tm1Mom I12rgtm1Wjl/SzJ), seminal glands, iv
[6] = NRG (NOD.Cg-Rag1tm1Mom Il2rgtm1Wjl/SzJ), SK-MEL-1 tumour
[7] = NRG (NOD.Cg-Rag1tm1Mom Il2rgtm1Wjl/SzJ), adrenal glands
[8] = NRG (NOD.Cg-Rag1tm1Mom Il2rgtm1Wjl/SzJ), blood
[9] = NRG (NOD.Cg-Rag1tm1Mom Il2rgtm1Wjl/SzJ), bone
[10] = NRG (NOD.Cg-Rag1tm1Mom Il2rgtm1Wjl/SzJ), brain
[11] = NRG (NOD.Cg-Rag1tm1Mom Il2rgtm1Wjl/SzJ), heart
[12] = NRG (NOD.Cg-Rag1tm1Mom Il2rgtm1Wjl/SzJ), intestine
[13] = NRG (NOD.Cg-Rag1tm1Mom Il2rgtm1Wjl/SzJ), kidneys
[14] = NRG (NOD.Cg-Rag1tm1Mom Il2rgtm1Wjl/SzJ), liver
[15] = NRG (NOD.Cg-Rag1tm1Mom Il2rgtm1Wjl/SzJ), lungs
[16] = NRG (NOD.Cg-Rag1tm1Mom Il2rgtm1Wjl/SzJ), muscle
[17] = NRG (NOD.Cg-Rag1tm1Mom Il2rgtm1Wjl/SzJ), pancreas
[18] = NRG (NOD.Cg-Rag1tm1Mom Il2rgtm1Wjl/SzJ), spleen
[19] = NRG (NOD.Cg-Rag1tm1Mom Il2rgtm1Wjl/SzJ), stomach
[20] = NRG (NOD.Cg-Rag1tm1Mom Il2rgtm1Wjl/SzJ), testes
[21] = NRG (NOD.Cg-Rag1tm1Mom Il2rgtm1Wjl/SzJ), thyroid
[22] = NRG (NOD.Cg-Rag1tm1Mom Il2rgtm1Wjl/SzJ), urine

CCCC[C@H](NC(=O)CN1CCC(NC(=O)[C@H](CCCCNC(=O)CN2CCN(CC(=O)O)CCN(CC(=O)O)CCN(CC(=O)O)CC2)NC(=O)CNC(=O)CCCc2ccc(-c3ccc(C)cc3)cc2)CC1)C(=O)N[C@H]1CC(=O)NCCCC[C@@H](C(N)=O)N(C)C(=O)[C@H](Cc2c[nH]c3ccccc23)NC(=O)[C@H](CCCNC(=N)N)N(C)C(=O)[C@@H](Cc2ccccc2)NC(=O)[C@H](Cc2c[nH]cn2)NC1=O [^177Lu-labeled CCZ01158, metal not drawn]
tissue to tissue ratio at 1 h (in vivo; Tumour/blood): 0.69 ± 0.08 | tissue to tissue ratio at 4 h (in vivo; Tumour/blood): 2.24 ± 0.36 | tissue to tissue ratio at 24 h (in vivo; Tumour/blood): 62.8 ± 26.4 | tissue to tissue ratio at 120 h (in vivo; Tumour/blood): 436 ± 64.7 | tissue to tissue ratio at 1 h (in vivo; Tumour/muscle): 7.99 ± 1.03 | tissue to tissue ratio at 4 h (in vivo; Tumour/muscle): 23.6 ± 4.32 | tissue to tissue ratio at 24 h (in vivo; Tumour/muscle): 245 ± 48 | tissue to tissue ratio at 120 h (in vivo; Tumour/muscle): 394 ± 42.9 | tissue uptake at 1 h [1, 4]: 2.24 ± 0.49 %ID/g | tissue uptake at 4 h [1, 4]: 1.85 ± 0.53 %ID/g | tissue uptake at 24 h [1, 4]: 0.3 ± 0.07 %ID/g | tissue uptake at 120 h [1, 4]: 0.2 ± 0.08 %ID/g | tissue uptake at 1 h [1, 5]: 1.8 ± 0.79 %ID/g | tissue uptake at 4 h [1, 5]: 0.79 ± 0.13 %ID/g | tissue uptake at 24 h [1, 5]: 0.15 ± 0.07 %ID/g | tissue uptake at 120 h [1, 5]: 0.11 ± 0.06 %ID/g | tissue uptake at 1 h [1, 6]: 13.3 ± 2.94 %ID/g | tissue uptake at 4 h [1, 6]: 24.3 ± 5.04 %ID/g | tissue uptake at 24 h [1, 6]: 29.7 ± 4.29 %ID/g | tissue uptake at 120 h [1, 6]: 19.3 ± 7.95 %ID/g | tissue uptake at 1 h [1, 7]: 5.1 ± 1.69 %ID/g | tissue uptake at 4 h [1, 7]: 3.54 ± 1.01 %ID/g | tissue uptake at 24 h [1, 7]: 1.68 ± 0.93 %ID/g | tissue uptake at 120 h [1, 7]: 1.36 ± 1.56 %ID/g | tissue uptake at 1 h [1, 8]: 19.1 ± 3.57 %ID/g | tissue uptake at 4 h [1, 8]: 10.8 ± 0.87 %ID/g | tissue uptake at 24 h [1, 8]: 0.54 ± 0.24 %ID/g | tissue uptake at 120 h [1, 8]: 0.04 ± 0.01 %ID/g | tissue uptake at 1 h [1, 9]: 1.36 ± 0.32 %ID/g | tissue uptake at 4 h [1, 9]: 0.8 ± 0.24 %ID/g | tissue uptake at 24 h [1, 9]: 0.24 ± 0.15 %ID/g | tissue uptake at 120 h [1, 9]: 0.23 ± 0.09 %ID/g | tissue uptake at 1 h [1, 10]: 0.33 ± 0.1 %ID/g | tissue uptake at 4 h [1, 10]: 0.2 ± 0.01 %ID/g | tissue uptake at 24 h [1, 10]: 0.04 ± 0.02 %ID/g | tissue uptake at 120 h [1, 10]: 0.03 ± 0.02 %ID/g | tissue uptake at 1 h [1, 11]: 4.7 ± 0.7 %ID/g | tissue uptake at 4 h [1, 11]: 2.84 ± 0.4 %ID/g | tissue uptake at 24 h [1, 11]: 0.5 ± 0.2 %ID/g | tissue uptake at 120 h [1, 11]: 0.3 ± 0.13 %ID/g | tissue uptake at 1 h [1, 12]: 2.07 ± 0.42 %ID/g | tissue uptake at 4 h [1, 12]: 1.32 ± 0.2 %ID/g | tissue uptake at 24 h [1, 12]: 0.51 ± 0.52 %ID/g | tissue uptake at 120 h [1, 12]: 0.28 ± 0.11 %ID/g | tissue uptake at 1 h [1, 13]: 11.3 ± 2.81 %ID/g | tissue uptake at 4 h [1, 13]: 11.3 ± 1.38 %ID/g | tissue uptake at 24 h [1, 13]: 8.29 ± 1.94 %ID/g | tissue uptake at 120 h [1, 13]: 3.26 ± 1.6 %ID/g | tissue uptake at 1 h [1, 14]: 7.24 ± 2.38 %ID/g | tissue uptake at 4 h [1, 14]: 6.37 ± 1.33 %ID/g | tissue uptake at 24 h [1, 14]: 4.45 ± 2.6 %ID/g | tissue uptake at 120 h [1, 14]: 3.85 ± 1.63 %ID/g | tissue uptake at 1 h [1, 15]: 11.2 ± 2.91 %ID/g | tissue uptake at 4 h [1, 15]: 6.81 ± 1.45 %ID/g | tissue uptake at 24 h [1, 15]: 1.55 ± 1.22 %ID/g | tissue uptake at 120 h [1, 15]: 2.15 ± 2.57 %ID/g | tissue uptake at 1 h [1, 16]: 1.67 ± 0.35 %ID/g | tissue uptake at 4 h [1, 16]: 1.03 ± 0.06 %ID/g | tissue uptake at 24 h [1, 16]: 0.13 ± 0.04 %ID/g | tissue uptake at 120 h [1, 16]: 0.05 ± 0.02 %ID/g | tissue uptake at 1 h [1, 17]: 1.87 ± 0.3 %ID/g | tissue uptake at 4 h [1, 17]: 1.22 ± 0.08 %ID/g | tissue uptake at 24 h [1, 17]: 0.27 ± 0.13 %ID/g | tissue uptake at 120 h [1, 17]: 0.16 ± 0.07 %ID/g | tissue uptake at 1 h [1, 18]: 3.9 ± 1.66 %ID/g | tissue uptake at 4 h [1, 18]: 2.5 ± 0.5 %ID/g | tissue uptake at 24 h [1, 18]: 1.89 ± 0.85 %ID/g | tissue uptake at 120 h [1, 18]: 4.6 ± 3.88 %ID/g | tissue uptake at 1 h [1, 19]: 0.85 ± 0.29 %ID/g | tissue uptake at 4 h [1, 19]: 0.66 ± 0.12 %ID/g | tissue uptake at 24 h [1, 19]: 1.07 ± 1.42 %ID/g | tissue uptake at 120 h [1, 19]: 1.24 ± 0.65 %ID/g | tissue uptake at 1 h [1, 20]: 2.99 ± 0.56 %ID/g | tissue uptake at 4 h [1, 20]: 2.8 ± 0.12 %ID/g | tissue uptake at 24 h [1, 20]: 0.92 ± 0.26 %ID/g | tissue uptake at 120 h [1, 20]: 0.56 ± 0.25 %ID/g | tissue uptake at 1 h [1, 21]: 5.57 ± 0.79 %ID/g | tissue uptake at 4 h [1, 21]: 5.74 ± 0.74 %ID/g | tissue uptake at 24 h [1, 21]: 5.04 ± 1.22 %ID/g | tissue uptake at 120 h [1, 21]: 5.4 ± 2.58 %ID/g | tissue to tissue ratio at 1 h ([1]; NRG (NOD.Cg-Rag1tm1Mom Il2rgtm1Wjl/SzJ), tumour/kidney, 1 h p.i., NRG mice, SK-MEL-1 melanoma): 1.18 ± 0.11 | tissue to tissue ratio at 4 h ([1]; NRG (NOD.Cg-Rag1tm1Mom Il2rgtm1Wjl/SzJ), tumour/kidney, 4 h p.i., NRG mice, SK-MEL-1 melanoma): 2.14 ± 0.26 | tissue to tissue ratio at 24 h ([1]; NRG (NOD.Cg-Rag1tm1Mom Il2rgtm1Wjl/SzJ), tumour/kidney, 24 h p.i., NRG mice, SK-MEL-1 melanoma): 3.68 ± 0.6 | tissue to tissue ratio at 120 h ([1]; NRG (NOD.Cg-Rag1tm1Mom Il2rgtm1Wjl/SzJ), tumour/kidney, 120 h p.i., NRG mice, SK-MEL-1 melanoma): 6.17 ± 1.09 | excreta dose per gram or mL at 1 h [1, 22]: 214 ± 57.6 %ID/g | excreta dose per gram or mL at 4 h [1, 22]: 258 ± 66.2 %ID/g | excreta dose per gram or mL at 24 h [1, 22]: 21.8 ± 4.6 %ID/g | excreta dose per gram or mL at 120 h [1, 22]: 3.56 ± 1.16 %ID/g | Overall comparison of tumour uptake and tumour to background contrast (SK-MEL-1 human melanoma [2]): superior due to high and sustained tumour uptake, as well as superior tumour to background contrast | Adverse effects (SK-MEL-1 human melanoma [3]): No obvious adverse effects were observed
